Tested on: 945468-187-T-J2-PDC spheroids viability
Experiment: Anticancer human tumor 945468-187-T-J2-PDC patient-derived rectal carcinoma cell line growth inhibition [PI3K]
Conditions: spheroids with HUVEC and MSC; for IC50: curve of first compound; for viability, T/C: stronger effect = lower value; active means viability on the fitted dose curve at most 10% of control; inactive means the rest
How it was run: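 Multi-cell spheroids combine tumor cells with HUVEC and human MSCs, treated with targeted agents alone or with inavolisib, alpelisib, duvelisib or copanlisib. Concentrations fall in half-log steps from at or near clinical Cmax, or from 10 microM where Cmax is unknown; viability read-out.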

[1] = second compound 0.0316 µM, first compound 0.0316 µM
[2] = second compound 0.0316 µM, first compound 0.1 µM
[3] = second compound 0.0316 µM, first compound 0.316 µM
[4] = second compound 0.0316 µM, first compound 1 µM
[5] = second compound 0.0316 µM, first compound 3.16 µM
[6] = second compound 0.0316 µM, first compound 10 µM
[7] = second compound 0.1 µM, first compound 0.0316 µM
[8] = second compound 0.1 µM, first compound 0.1 µM
[9] = second compound 0.1 µM, first compound 0.316 µM
[10] = second compound 0.1 µM, first compound 1 µM
[11] = second compound 0.1 µM, first compound 3.16 µM
[12] = second compound 0.1 µM, first compound 10 µM
[13] = second compound 0.316 µM, first compound 0.0316 µM
[14] = second compound 0.316 µM, first compound 0.1 µM
[15] = second compound 0.316 µM, first compound 0.316 µM
[16] = second compound 0.316 µM, first compound 1 µM
[17] = second compound 0.316 µM, first compound 3.16 µM
[18] = second compound 0.316 µM, first compound 10 µM
[19] = second compound 1 µM, first compound 0.0316 µM
[20] = second compound 1 µM, first compound 0.1 µM
[21] = second compound 1 µM, first compound 0.316 µM
[22] = second compound 1 µM, first compound 1 µM
[23] = second compound 1 µM, first compound 3.16 µM
[24] = second compound 1 µM, first compound 10 µM
[25] = second compound 3.16 µM, first compound 0.0316 µM
[26] = second compound 3.16 µM, first compound 0.1 µM
[27] = second compound 3.16 µM, first compound 0.316 µM
[28] = second compound 3.16 µM, first compound 1 µM
[29] = second compound 3.16 µM, first compound 3.16 µM
[30] = second compound 3.16 µM, first compound 10 µM
[31] = second compound 10 µM, first compound 0.0316 µM
[32] = second compound 10 µM, first compound 0.1 µM
[33] = second compound 10 µM, first compound 0.316 µM
[34] = second compound 10 µM, first compound 1 µM
[35] = second compound 10 µM, first compound 3.16 µM
[36] = second compound 10 µM, first compound 10 µM
[37] = second compound 0.0316 µM, first compound 0.00316 µM
[38] = second compound 0.0316 µM, first compound 0.01 µM
[39] = second compound 0.1 µM, first compound 0.00316 µM
[40] = second compound 0.1 µM, first compound 0.01 µM
[41] = second compound 0.316 µM, first compound 0.00316 µM
[42] = second compound 0.316 µM, first compound 0.01 µM
[43] = second compound 1 µM, first compound 0.00316 µM
[44] = second compound 1 µM, first compound 0.01 µM
[45] = second compound 3.16 µM, first compound 0.00316 µM
[46] = second compound 3.16 µM, first compound 0.01 µM
[47] = second compound 10 µM, first compound 0.00316 µM
[48] = second compound 10 µM, first compound 0.01 µM
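Further: spheroids exposed to compounds for seven days before reading.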

CC(C)NCC(C(=O)N1CCN(c2ncnc3c2C(C)CC3O)CC1)c1ccc(Cl)cc1 (stereo not drawn) + CC(Nc1ncnc2nc[nH]c12)c1cc2cccc(Cl)c2c(=O)n1-c1ccccc1
> 10 µM: IC50 (second compound 0.0316 µM) | IC50 (second compound 0.1 µM) | IC50 (second compound 0.316 µM) | IC50 (second compound 1 µM) | IC50 (second compound 3.16 µM) | IC50 (second compound 10 µM)
inactive: viability, T/C [1] 88.1% | viability, T/C [2] 82% | viability, T/C [3] 111% | viability, T/C [4] 74.2% | viability, T/C [5] 116% | viability, T/C [6] 77.2% | viability, T/C [7] 97.1% | viability, T/C [8] 93.1% | viability, T/C [9] 78% | viability, T/C [10] 84% | viability, T/C [11] 89.7% | viability, T/C [12] 77.7% | viability, T/C [13] 86.4% | viability, T/C [14] 76.6% | viability, T/C [15] 107% | viability, T/C [16] 97.5% | viability, T/C [17] 100% | viability, T/C [18] 76.9% | viability, T/C [19] 69.1% | viability, T/C [20] 97.6% | viability, T/C [21] 86.4% | viability, T/C [22] 106% | viability, T/C [23] 92.6% | viability, T/C [24] 67.9% | viability, T/C [25] 80.8% | viability, T/C [26] 75.3% | viability, T/C [27] 77% | viability, T/C [28] 116% | viability, T/C [29] 84.7% | viability, T/C [30] 76.9% | viability, T/C [31] 93.7% | viability, T/C [32] 96.1% | viability, T/C [33] 86.2% | viability, T/C [34] 103% | viability, T/C [35] 90.4% | viability, T/C [36] 81%

CCN1CCN(Cc2ccc(Nc3ncc(F)c(-c4cc(F)c5nc(C)n(C(C)C)c5c4)n3)nc2)CC1 + CC(Nc1ncnc2nc[nH]c12)c1cc2cccc(Cl)c2c(=O)n1-c1ccccc1
inactive: viability, T/C [37] 91.3% | viability, T/C [38] 103% | viability, T/C [1] 98.8% | viability, T/C [2] 92.9% | viability, T/C [3] 100% | viability, T/C [4] 79.7% | viability, T/C [39] 93.5% | viability, T/C [40] 122% | viability, T/C [7] 118% | viability, T/C [8] 89.5% | viability, T/C [9] 84.2% | viability, T/C [10] 71.6% | viability, T/C [41] 83.9% | viability, T/C [42] 76.9% | viability, T/C [13] 86% | viability, T/C [14] 84.1% | viability, T/C [15] 95.8% | viability, T/C [16] 67% | viability, T/C [43] 120% | viability, T/C [44] 98% | viability, T/C [19] 85.4% | viability, T/C [20] 87.8% | viability, T/C [21] 88.7% | viability, T/C [22] 74.2% | viability, T/C [45] 90.8% | viability, T/C [46] 98.8% | viability, T/C [25] 94.2% | viability, T/C [26] 87.2% | viability, T/C [27] 77.8% | viability, T/C [28] 59.5% | viability, T/C [47] 81.5% | viability, T/C [48] 76.4% | viability, T/C [31] 104% | viability, T/C [32] 98.8% | viability, T/C [33] 95% | viability, T/C [34] 53.6%
> 1 µM: IC50 (second compound 0.0316 µM) | IC50 (second compound 0.1 µM) | IC50 (second compound 0.316 µM) | IC50 (second compound 1 µM) | IC50 (second compound 3.16 µM) | IC50 (second compound 10 µM)

C[C@@H](NC(=O)c1ncnc(N)c1Cl)c1ncc(C(=O)Nc2cc(C(F)(F)F)c(Cl)cn2)s1 + CC(Nc1ncnc2nc[nH]c12)c1cc2cccc(Cl)c2c(=O)n1-c1ccccc1
> 10 µM: IC50 (second compound 0.0316 µM) | IC50 (second compound 0.1 µM) | IC50 (second compound 0.316 µM) | IC50 (second compound 1 µM) | IC50 (second compound 3.16 µM) | IC50 (second compound 10 µM)
inactive: viability, T/C [1] 83.6% | viability, T/C [2] 82.8% | viability, T/C [3] 113% | viability, T/C [4] 106% | viability, T/C [5] 109% | viability, T/C [6] 86.2% | viability, T/C [7] 119% | viability, T/C [8] 108% | viability, T/C [9] 85.5% | viability, T/C [10] 68.7% | viability, T/C [11] 121% | viability, T/C [12] 104% | viability, T/C [13] 119% | viability, T/C [14] 90.9% | viability, T/C [15] 99.3% | viability, T/C [16] 92.2% | viability, T/C [17] 93.3% | viability, T/C [18] 80.7% | viability, T/C [19] 92.7% | viability, T/C [20] 108% | viability, T/C [21] 81.3% | viability, T/C [22] 95% | viability, T/C [23] 83.1% | viability, T/C [24] 90.1% | viability, T/C [25] 103% | viability, T/C [26] 110% | viability, T/C [27] 77.7% | viability, T/C [28] 124% | viability, T/C [29] 110% | viability, T/C [30] 104% | viability, T/C [31] 83% | viability, T/C [32] 123% | viability, T/C [33] 110% | viability, T/C [34] 84.4% | viability, T/C [35] 119% | viability, T/C [36] 108%

Cn1ncnc1[C@H]1c2n[nH]c(=O)c3cc(F)cc(c23)N[C@@H]1c1ccc(F)cc1 + CC(Nc1ncnc2nc[nH]c12)c1cc2cccc(Cl)c2c(=O)n1-c1ccccc1
> 0.1 µM: IC50 (second compound 0.0316 µM) | IC50 (second compound 0.1 µM) | IC50 (second compound 0.316 µM) | IC50 (second compound 1 µM) | IC50 (second compound 3.16 µM) | IC50 (second compound 10 µM)
inactive: viability, T/C (second compound 0.0316 µM, first compound 0.000316 µM) 100% | viability, T/C (second compound 0.0316 µM, first compound 0.001 µM) 106% | viability, T/C [37] 85.3% | viability, T/C [38] 93.1% | viability, T/C [1] 87.3% | viability, T/C [2] 89.8% | viability, T/C (second compound 0.1 µM, first compound 0.000316 µM) 89% | viability, T/C (second compound 0.1 µM, first compound 0.001 µM) 90.3% | viability, T/C [39] 88% | viability, T/C [40] 88% | viability, T/C [7] 103% | viability, T/C [8] 109% | viability, T/C (second compound 0.316 µM, first compound 0.000316 µM) 115% | viability, T/C (second compound 0.316 µM, first compound 0.001 µM) 102% | viability, T/C [41] 130% | viability, T/C [42] 97.5% | viability, T/C [13] 121% | viability, T/C [14] 96.8% | viability, T/C (second compound 1 µM, first compound 0.000316 µM) 88.8% | viability, T/C (second compound 1 µM, first compound 0.001 µM) 100% | viability, T/C [43] 84.7% | viability, T/C [44] 108% | viability, T/C [19] 103% | viability, T/C [20] 110% | viability, T/C (second compound 3.16 µM, first compound 0.000316 µM) 120% | viability, T/C (second compound 3.16 µM, first compound 0.001 µM) 108% | viability, T/C [45] 116% | viability, T/C [46] 128% | viability, T/C [25] 99.4% | viability, T/C [26] 111% | viability, T/C (second compound 10 µM, first compound 0.000316 µM) 117% | viability, T/C (second compound 10 µM, first compound 0.001 µM) 103% | viability, T/C [47] 112% | viability, T/C [48] 105% | viability, T/C [31] 102% | viability, T/C [32] 109%

— PubChem BioAssay AID1963972 (Molecular Pharmacology Branch, DTP, NCI, 2024)
